Assay results taken from patent US20230242948A1, “OLEIC ACID PRODUCED FROM MICROORGANISM AND METHOD FOR PRODUCING OLEIC ACID USING MICROORGANISM” (KOREA INSTITUTE OF SCIENCE AND TECHNOLOGY, priority 2022, published 2023).

Key:
Type in all cases: cell-based
[1] = system: transformed Yarrowia lipolytica; test: Oleic acid production depending on concentration of added hexanoic acid, glucose and xylose medium (Test Example 2); conditions: for oleic acid concentration increased by / oleic acid content increased by / oleic acid concentration: 168 hours; for oleic acid concentration increased by / oleic acid content increased by: vs Comparative Example 3; for oleic acid concentration: 0.377 g/L without hexanoic acid
Procedure: Specifically, wild-type Yarrowia lipolytica was transformed in the same manner as in Example 2 and hexanoic acid at 0 g/L (Comparative Example 3), 0.2 g/L (Example 3), 0.6 g/L (Example 4) or 1 g/L (Example 5) was added to a minimal medium containing 20 g/L glucose and 10 g/L xylose as carbon sources (20 g/L glucose, 10 g/L xylose, 6.7 g/L yeast nitrogen base, CSM-ura (MP Biomedicals, Solon, USA), pH 6.8 potassium phosphate buffer). Then, after inoculating the transformed microorganism to the medium, shaking culture was conducted at 28° C. and 200 rpm. After culturing for 168 hours, the microorganism was separated from the culture through centrifugation and the amount of produced lipids was measured from the separated strain. The amount of produced oleic acid was calculated through lipid assay and the amount of glucose and xylose consumed as carbon sources was measured from the separated culture.

[2] = system: recombinant Yarrowia lipolytica; test: Culture of recombinant lipid-producing microorganism (peroxisomal biogenesis factor 10 deleted, diacylglycerol acyltransferase overexpressed) in glucose minimal medium with or without hexanoic acid (Test Example 1)
Procedure: (§1) As an exemplary embodiment of the present disclosure, after deleting peroxisomal biogenesis factor 10 (SEQ ID NO 1), which is a lipid degradation-related gene, from the wild-type Yarrowia lipolytica (microorganism accession number ATCC MYA-2613) of Example 1 using the CRISPR/Cas9 system, a lipid-producing microorganism was prepared by overexpressing diacylglycerol acyltransferase, which is a key gene in a lipid-producing metabolic pathway, using a vector (pMCS-12TEF-DGA1-CYC1t, SEQ ID NO 3) comprising a UAS1B enhancer, a TEF (translational elongation factor) promoter and a gene encoding diacylglycerol acyltransferase (SEQ ID NO 2). Then, after inoculating the microorganism to a minimal medium containing glucose as a carbon source (20 g/L glucose, 6.7 g/L yeast nitrogen base, CSM-ura (MP Biomedicals, Solon, USA), pH 6.8 potassium phosphate buffer) and supplemented with 1 g/L hexanoic acid, shaking culture was conducted at 28° C. and 200 rpm. After culturing for 144-168 hours, the microorganism was separated from the culture through centrifugation.
as §1, with “After” for “As an exemplary embodiment of the present disclosure, after”, “buffer),” for “buffer) and supplemented with 1 g/L hexanoic acid,”
(§2) In order to investigate the consumption of the carbon source in the medium and the content of the produced lipids depending on the addition of hexanoic acid during the culturing of the lipid-producing microorganisms, the amount of biomass (dry cell weight) and lipids produced from the microorganisms isolated in Examples 1-2 and Comparative Examples 1-2 was measured. The amount of produced oleic acid was calculated through lipid assay and the amount of consumed glucose was measured form the separated cultures.

[3] = system: wild-type Yarrowia lipolytica (ATCC MYA-2613); test: Culture of wild-type lipid-producing microorganism in glucose minimal medium with or without hexanoic acid (Test Example 1); conditions: 1 g/L hexanoic acid
Procedure: (§3) As an exemplary embodiment of the present disclosure, wild-type Yarrowia lipolytica (microorganism accession number ATCC MYA-2613) was inoculated to a minimal medium containing glucose as a carbon source (20 g/L glucose, 6.7 g/L yeast nitrogen base, CSM-ura (MP Biomedicals, Solon, USA), pH 6.8 potassium phosphate buffer) and supplemented with 1 g/L hexanoic acid. Then shaking culture was conducted at 28° C. and 200 rpm. After culturing for 144-168 hours, the microorganism was separated from the culture through centrifugation.
as §3, with “After inoculating” for “As an exemplary embodiment of the present disclosure,”, “MYA-2613)” for “MYA-2613) was inoculated”, “buffer),” for “buffer) and supplemented with 1 g/L hexanoic acid. Then”
as §2

[4] = Example 3, 0.2 g/L hexanoic acid
[5] = Example 4, 0.6 g/L hexanoic acid

`CCCCCC(=O)O` [hexanoic acid] was tested, and the “oleic acid concentration increased by” value [1, 4] was 10.5%, the “oleic acid content increased by” value [1, 4] was 27.4% and the oleic acid concentration [1, 4] was 0.417 g/L. The “oleic acid concentration increased by” value [1, 5] was 40.3%, the “oleic acid content increased by” value [1, 5] was 40.1% and the oleic acid concentration [1, 5] was 0.529 g/L. For the same compound, the “oleic acid concentration increased by” value ([1]; Example 5, 1 g/L hexanoic acid) was 61.2%, the “oleic acid content increased by” value ([1]; Example 5, 1 g/L hexanoic acid) was 52.1% and the oleic acid concentration ([1]; Example 5, 1 g/L hexanoic acid) was 0.608 g/L. For the same compound, the consumption of xylose ([1]; hexanoic acid added to medium with 20 g/L glucose and 10 g/L xylose, FIG. 8) was “increased remarkably”, the “increase of lipid production as compared to Comparative Example 2” value ([2]; 1 g/L hexanoic acid, 144-168 hours, FIG. 2) was “about 10%” and the “consumption rate of the carbon source glucose” value ([2]; Example 2, 1 g/L hexanoic acid, 20 g/L glucose, 28° C., FIG. 1) was “increased”. For the same compound, the intracellular lipid content ([2]; Example 2, 1 g/L hexanoic acid, 50.3% without hexanoic acid (Comparative Example 2)) was 73.8%, the “content of oleic acid in the produced lipids” value ([2]; Example 2, 1 g/L hexanoic acid, FIG. 3) was about 61% and the “relative oleic acid production as compared to Comparative Example 1 (wild-type strain, medium not comprising hexanoic acid)” value ([2]; Example 2, recombinant strain plus 1 g/L hexanoic acid, FIG. 4) was “about 3.3 times”. The “lipid production (in words)” value [3] was “not increased significantly”, the “consumption rate of the carbon source glucose” value ([3]; 20 g/L glucose, 28° C., FIG. 1) was “increased” and the “increase of lipid production as compared to Comparative Example 1” value ([3]; 144-168 hours, FIG. 2) was “about 10%”. The “content of oleic acid in the produced lipids” value ([3]; FIG. 3) was 66%.
